Data set [1] in a line: pH of amino acids in 1% carboxymethylcellulose solution. The settings on record: 150 mg/ml in 1% carboxymethylcellulose solution. The format is physicochemical. As to the method:
The pH values of the amino acids are also determined. The amino acids are separately dissolved or suspended in 1% carboxymethylcellulose solution at a concentration of 150 mg/ml and the pH is measured on an Hitachi pH meter (product of Hitachi Ltd., Japan).

Data set [2] relates to aspirin-induced gastric lesions in pylorus-ligated rats. Put plainly: Effect of L-glutamine on aspirin-induced gastric lesions in pylorus-ligated rats (Experiment 1). The format is in vivo, male Donryu strain rats. The settings on record: for Ulcer index / Inhibition: aspirin 100 mg/kg oral; for Ulcer index: 7 hours; for Inhibition: vs control ulcer index. On the procedure:
In this Experiment, 6 groups of male Donryu strain rats are used. The animals are fasted for 24 hours but water is allowed ad libitum. Under ether anesthesia, the pylorus is ligated according to the standard method of Shay et al. Five groups are treated with graded doses of L-glutamine suspended in 1% carboxymethylcellulose solution by oral administration immediately after the pylorus ligation. A sixth group (control) is treated with 5 ml/kg of 1% carboxymethylcellulose solution alone. […] After a 7-hour interval during which the animals are not allowed feed or water, the animals are killed by an overdose of ether. […] The stomach is removed and slightly inflated by injection of 1% formalin solution through the esophagel junction. […] The stomach is opened along the greater curvature and the length of lesions (dark blue areas against pale blue background) in the glandular portion is measured under a dissecting microscope (10x) provided with a square grid. […] The ulcer index expressed by mm indicates the mean value of the sum of the length of the lesions per animal of each group. The level of significance is calculated according to Student t-test.

Usually Inhibition stands for the relative decrease from the control value, in per cent. On to `NC(=O)CC[C@H](N)C(=O)O` [L-glutamine], for which the “Amino acid pH” value in data set [1] was found to be 6.65. Moreover, the Ulcer index in data set [2] (L-glutamine 62.5 mg/kg oral) is reported as 57.6±5.6 mm; in data set [2] (L-glutamine 125 mg/kg oral) it was 27.9±4.7 mm; in data set [2] (L-glutamine 250 mg/kg oral) it was 15.0±3.4 mm; in data set [2] (L-glutamine 500 mg/kg oral) it was 18.0±3.1 mm; in data set [2] (L-glutamine 1,000 mg/kg oral) it was 3.5±1.5 mm. Further, the Inhibition is -5.0% in data set [2] (L-glutamine 62.5 mg/kg oral); 49.0% in data set [2] (L-glutamine 125 mg/kg oral); 72.6% in data set [2] (L-glutamine 250 mg/kg oral); 67.1% in data set [2] (L-glutamine 500 mg/kg oral); 93.6% in data set [2] (L-glutamine 1,000 mg/kg oral). For the same compound, in data set [2] (L-glutamine 62.5 mg/kg, aspirin 100 mg/kg), the “gastric lesions preventive effect” value is recorded as “no such effect is observed”. Further, the “animals with stomachs quite clear and no mucosal defect” value in data set [2] (L-glutamine 1000 mg/kg, aspirin 100 mg/kg) is given as “three out of 12”.

These data come from patent US3988466A, “Prevention of gastric lesions” (priority 1973, dated 1976).
